Results on one compound are retold here after patent publication US7169809B2, “Nitric oxide releasing prodrugs of diaryl-2-(5H)-furanones as cyclooxygenase-2 inhibitors” (Merck Frosst Company, priority 2003, dated 2007).

Series [1] deals with carrageenan-induced rat paw edema. In words: Carrageenan-induced rat paw edema assay. Type of series: in vivo. The conditions noted are these: oral, 1 hr pretreatment, Sprague-Dawley rats, paw volume at 3 h, read-out: inhibition of carrageenan-induced edema response. The protocol: The carrageenan-induced rat paw edema assay is an established assay for evaluating the efficacy of conventional, non-selective NSAIDs in acute inflammation (Winter and Flataker, 1965; Mukherjee et al., 1996; Vinegar et al., 1987).
Male Sprague-Dawley rats (200–250 g) are fasted for 16–18 h prior to oral administration of either the vehicle (0.5% methocel) or test compound. One hour later, a line was drawn using a permanent marker at a level above the ankle in one hind paw to define the area of the paw to be monitored. The paw volume (V0) is measured using a plethysmometer (Ugo-Basile, Italy) based on the Archimedes principle of water displacement. The rats are then injected subplantarly with 0.05 mL of a 1% carrageenan (Sigma Chem.) solution in saline using a syringe with a 27-gauge needle (i.e. 500 μg carrageenan per paw). Three hours later, the paw volume (V3) is measured again and the increases in paw volume (V3−V0) is calculated. Paw edema is compared with the vehicle-control group and the percent inhibition calculated taking the values in the control group as 0%.
A general note: The carrageenan paw model is a standard test of acute inflammation.

In a further series the target is T1, COX-1 (Homo sapiens, UniProt P23219).
T1 construct: Fresh blood from male or female volunteers is collected into vacutainers containing no anticoagulants; from tissue; host or cells: fresh human whole blood without anticoagulant, from male or female volunteers, allowed to clot for 1 h at 37 °C
The experiment in a line: Human whole blood cyclooxygenase assay, COX-1 (clotting-induced TXB2 production). To be noted: clotting 1 h, n=3, read-out: IC50 for inhibition of clotting-induced TXB2 level. Type of series: cell-based. The protocol:
(§1) Whole blood provides a protein and cell-rich milieu for the study of biochemical efficacy of anti-inflammatory compounds such as COX-2 inhibitors and NSAIDs. To study the inhibitory activities of these compounds on the two isoforms of cyclooxygenase (COX-1 and COX-2), human blood is either stimulated with lipopolysaccharide (LPS) for 24 hours to induce COX-2 or the blood is allowed to clot spontaneously to activate COX-1. The production of prostaglandin E2 (PGE2) and thromboxane B2 (TXB2) are measured by immunoassay at the end of the incubation as readouts of COX-2 and COX-1 activity, respectively.
(§2) Human whole blood assays for COX-1 and COX-2 activity, previously reported (Brideau et al, 1996) are performed as described below.
Fresh blood from male or female volunteers is collected into vacutainers containing no anticoagulants. These subjects have no apparent inflammatory conditions and have not taken any NSAIDs for at least 7 days prior to blood collection. Aliquots of 500 μL are immediately transferred to polypropylene tubes preloaded with 2 μL of DMSO or 2 μL of test compounds. The tubes are vortexed and incubated at 37° C. for 1 h to allow the blood to clot. At the end of the incubation, serum is obtained by centrifugation (3,000 rpm for 10 min at […]). […]

The target of another series is T2, COX-2 (Homo sapiens, UniProt P35354).
T2 construct: Fresh blood is collected in heparinized tubes by venipuncture from healthy male volunteers; from tissue; host or cells: fresh heparinized human whole blood from healthy male volunteers, LPS-stimulated for 24 h
T2 sequence (P35354 18-604): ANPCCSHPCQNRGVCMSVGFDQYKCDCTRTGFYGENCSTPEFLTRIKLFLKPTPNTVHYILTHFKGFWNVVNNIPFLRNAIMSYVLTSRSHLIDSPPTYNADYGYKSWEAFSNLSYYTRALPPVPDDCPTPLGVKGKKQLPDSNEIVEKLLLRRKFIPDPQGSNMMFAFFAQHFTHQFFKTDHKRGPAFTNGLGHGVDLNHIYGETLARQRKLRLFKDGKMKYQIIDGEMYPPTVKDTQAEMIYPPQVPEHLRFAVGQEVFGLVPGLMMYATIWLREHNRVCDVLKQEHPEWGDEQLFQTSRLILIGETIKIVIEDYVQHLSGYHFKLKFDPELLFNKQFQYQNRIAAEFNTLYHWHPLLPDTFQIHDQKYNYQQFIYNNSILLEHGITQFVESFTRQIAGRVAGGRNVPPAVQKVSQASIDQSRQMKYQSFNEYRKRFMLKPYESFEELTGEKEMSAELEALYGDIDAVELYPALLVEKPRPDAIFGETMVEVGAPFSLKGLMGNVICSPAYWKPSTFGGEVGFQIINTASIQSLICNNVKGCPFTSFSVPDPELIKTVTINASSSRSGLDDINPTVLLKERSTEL
In words: Human whole blood cyclooxygenase assay, COX-2 (LPS-induced PGE2 production). The format is cell-based. The protocol: as §1, §2
Fresh blood is collected in heparinized tubes by venipuncture from healthy male volunteers. These subjects have no apparent inflammatory conditions and have not taken any NSAIDs for at least 7 days prior to blood collection. The blood is initially pre-incubated with bacterial lipopolysaccharide (LPS) at 100 μg/ml (Sigma Chem, #L-2630 from E. coli, serotype 0111:B4; diluted in 0.1% w/v bovine serine albumin in phosphate buffered saline). Five minutes later, 500 μL aliquots of the LPS-treated blood aree incubated with 2 μL vehicle (DMSO) or 2 μL of test compounds in DMSO for 24 hr at 37° C. (for induction of COX-2). […]

The subject of a further series is gastric erosions. The experiment in a line: Gastric erosion model in rats (co-dosed with aspirin). The conditions noted are these: Wistar rats, compared to rofecoxib dosed with aspirin, 3 hr. The format is in vivo, rat. The protocol:
The gastric protective effects of the combination of the present invention co-administered with aspirin may be evaluated in the following assay.
Male Wistar rats (200–250 g) were fasted for 16–18 h prior to use for experiment. Aspririn, rofecoxib in combination with aspirin (dosed separately), or test compound in combination with aspirin (dosed separately) were given on the morning of the experiment at a dosing volume of 1 ml/kg in 0.5% methocel. Three hr later, the animals were euthanized by CO2 inhalation and the stomach removed, rinsed in saline and prepared for imaging processing. Microscopic pictures of the stomach were taken using a digital camera and gastric erosions were measured using an imaging software by an observer unaware of the treatment groups. The length of gastric erosions was measured in mm and the total length of all erosions from each stomach was obtained and used as gastric damage score.
This model is also described in S. Fiorucci, et al., Gastroenterology, vol. 123, pp. 1598–1606, 2002 and M. Souza, et al., Am. J. Physiol. Gastrointest. Liver Physiol., vol. 285, pp. G54–G61, 2003.

For orientation: inhibition means the drop in the measured response relative to a control, in per cent. The IC50 is the concentration needed to halve the response being measured.

T1 sequence (P23219 24-599): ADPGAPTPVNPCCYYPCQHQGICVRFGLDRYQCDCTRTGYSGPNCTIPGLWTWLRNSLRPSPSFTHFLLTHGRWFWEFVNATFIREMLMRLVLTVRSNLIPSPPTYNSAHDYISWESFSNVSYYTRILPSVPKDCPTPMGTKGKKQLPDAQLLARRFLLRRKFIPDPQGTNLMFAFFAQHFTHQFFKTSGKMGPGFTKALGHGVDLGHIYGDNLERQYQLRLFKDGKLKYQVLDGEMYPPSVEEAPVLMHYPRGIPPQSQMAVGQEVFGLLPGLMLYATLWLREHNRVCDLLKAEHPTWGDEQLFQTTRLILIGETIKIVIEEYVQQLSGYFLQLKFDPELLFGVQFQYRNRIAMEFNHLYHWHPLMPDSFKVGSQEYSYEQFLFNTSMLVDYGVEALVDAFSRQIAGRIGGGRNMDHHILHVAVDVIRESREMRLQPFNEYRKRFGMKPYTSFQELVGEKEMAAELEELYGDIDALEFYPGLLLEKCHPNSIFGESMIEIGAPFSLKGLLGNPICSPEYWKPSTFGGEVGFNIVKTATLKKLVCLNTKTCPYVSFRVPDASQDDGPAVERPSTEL

In the case of `CC(=O)OC/C(=C(\C(=O)OCCCCCCO[N+](=O)[O-])c1ccccc1)c1ccc(S(C)(=O)=O)cc1` [Example 1, 6-(nitrooxy)hexyl (2Z)-4-(acetyloxy)-3-[4-(methylsulfonyl)phenyl]-2-phenylbut-2-enoate], the inhibition at 1 mg/kg in series [1] came to 49%. The IC50 amounted to 7.8 ± 2.6 µM on COX-1 and 0.22 ± 0.04 µM at COX-2 (LPS-stimulated human whole blood, 24 hr, n=6, read-out: IC50 for the inhibition of PGE2 production in a human whole blood assay). In addition, the COX1/COX2 selectivity at COX-2 (in vitro human peripheral blood assay, ratio of COX-1 to COX-2 IC50) is listed as 35 fold. Besides, in the series with gastric erosions, the “gastric protection (gastric damage score)” value was “significant gastric protection”.
